In brackets after ≈: the same amount, converted by molar mass.
What was measured:
Experiment in all cases: In vitro antibacterial evaluation: minimum inhibitory concentration (MIC), broth dilution method
Assay type in all cases: cell-based
Details in all cases: 18 hours at 35° C.
Enterococcus sp. = system: Enterococcus sp.
In short: (§1)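 NCCLS M7-A2 broth dilution; Muller-Hinton II […]; 5×10^5 CFU/mL; 64-0.06 μg/mL. MIC = lowest concentration with no growth.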

Escherichia coli = system: Escherichia coli
In short: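 NCCLS M7-A2 broth dilution with Mueller-Hinton II, testing 64-0.06 μg/mL antibiotic against 5×10^5 CFU/mL inocula. Test strains include recent methicillin-, penicillin- or vancomycin-resistant clinical isolates. MIC is the lowest concentration preventing growth.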

Staphylococcus sp. = system: Staphylococcus sp.
In short: as §1

Streptococcus sp. = system: Streptococcus sp.
In short: as §1

[1] = broth dilution, inoculum 5×10^5 CFU/mL

CC(c1ccccc1)C1NC(=O)CNC(=O)C(CO)NC(=O)C(CC2CNC(=N)N2C2OC(CO)C(O)C(O)C2O)NC(=O)C(CC2CNC(=N)N2)NC(=O)C(Cc2ccc(OC3OC(CO)C(OC4OC(CO)C(OCc5ccc(OCc6ccccc6)cc5)C(O)C4O)C(O)C3O)cc2)NC1=O (stereo not shown) [Example 246a]
MIC Enterococcus avium (GC 4558) (Enterococcus sp.; Enterococcus avium (GC 4558)): 2 µg/mL (≈ 1.37 µM)
MIC Enterococcus faecalis (ATCC 29212) (Enterococcus sp.; Enterococcus faecalis (ATCC 29212)): 4 µg/mL (≈ 2.74 µM)
MIC Enterococcus faecalis (GC 2242) (Enterococcus sp.; Enterococcus faecalis (GC 2242)): 4 µg/mL (≈ 2.74 µM)
MIC Enterococcus faecalis (GC 2691) (Enterococcus sp.; Enterococcus faecalis (GC 2691)): 8 µg/mL (≈ 5.48 µM)
MIC Enterococcus faecalis (GC 3059) (Enterococcus sp.; Enterococcus faecalis (GC 3059)): 4 µg/mL (≈ 2.74 µM)
MIC Enterococcus faecalis (GC 4552) (Enterococcus sp.; Enterococcus faecalis (GC 4552)): 4 µg/mL (≈ 2.74 µM)
MIC Enterococcus faecalis (GC 4553) (Enterococcus sp.; Enterococcus faecalis (GC 4553)): 2 µg/mL (≈ 1.37 µM)
MIC Enterococcus faecalis (GC 4554) (Enterococcus sp.; Enterococcus faecalis (GC 4554)): 4 µg/mL (≈ 2.74 µM)
MIC Enterococcus faecalis (GC 6189) (Enterococcus sp.; Enterococcus faecalis (GC 6189)): 4 µg/mL (≈ 2.74 µM)
MIC Enterococcus faecium (GC 2243) (Enterococcus sp.; Enterococcus faecium (GC 2243)): 4 µg/mL (≈ 2.74 µM)
MIC Enterococcus faecium (GC 4556) (Enterococcus sp.; Enterococcus faecium (GC 4556)): 4 µg/mL (≈ 2.74 µM)
MIC Enterococcus faecium (GC 4557) (Enterococcus sp.; Enterococcus faecium (GC 4557)): 2 µg/mL (≈ 1.37 µM)
MIC Enterococcus faecalis (GC 2242) (Enterococcus sp.; [1]): 4 µg/mL (≈ 2.74 µM)
MIC Enterococcus faecalis (GC 2691) (Enterococcus sp.; [1]): 8 µg/mL (≈ 5.48 µM)
MIC Enterococcus faecalis (GC 3059) (Enterococcus sp.; [1]): 4 µg/mL (≈ 2.74 µM)
MIC Escherichia coli (ATCC 25922) (Escherichia coli; Escherichia coli (ATCC 25922)): 16 µg/mL (≈ 11 µM)
MIC Escherichia coli (GC 4559) (Escherichia coli; Escherichia coli (GC 4559)): 16 µg/mL (≈ 11 µM)
MIC Escherichia coli (GC 4560) (Escherichia coli; Escherichia coli (GC 4560)): 2 µg/mL (≈ 1.37 µM)
MIC Coagulase Negative Staphylococcus (GC 4547) (Staphylococcus sp.; Coagulase Negative Staphylococcus (GC 4547)): 1 µg/mL (≈ 0.685 µM)
MIC Coagulase Negative Staphylococcus (GC 4548) (Staphylococcus sp.; Coagulase Negative Staphylococcus (GC 4548)): 1 µg/mL (≈ 0.685 µM)
MIC Coagulase Negative Staphylococcus (GC 4549) (Staphylococcus sp.; Coagulase Negative Staphylococcus (GC 4549)): 1 µg/mL (≈ 0.685 µM)
MIC Coagulase Negative Staphylococcus (GC 4551) (Staphylococcus sp.; Coagulase Negative Staphylococcus (GC 4551)): 2 µg/mL (≈ 1.37 µM)
MIC Coagulase Negative Staphylococcus (GC 6257) (Staphylococcus sp.; Coagulase Negative Staphylococcus (GC 6257)): 2 µg/mL (≈ 1.37 µM)
MIC Staphylococcus aureus (ATCC 29213) (Staphylococcus sp.; Staphylococcus aureus (ATCC 29213)): 2 µg/mL (≈ 1.37 µM)
MIC Staphylococcus aureus (GC 1131) (Staphylococcus sp.; Staphylococcus aureus (GC 1131)): 4 µg/mL (≈ 2.74 µM)
MIC Staphylococcus aureus (GC 3051) (Staphylococcus sp.; Staphylococcus aureus (GC 3051)): 1 µg/mL (≈ 0.685 µM)
MIC Staphylococcus aureus (GC 3053) (Staphylococcus sp.; Staphylococcus aureus (GC 3053)): 2 µg/mL (≈ 1.37 µM)
MIC Staphylococcus aureus (GC 4541) (Staphylococcus sp.; Staphylococcus aureus (GC 4541)): 1 µg/mL (≈ 0.685 µM)
MIC Staphylococcus aureus (GC 4542) (Staphylococcus sp.; Staphylococcus aureus (GC 4542)): 1 µg/mL (≈ 0.685 µM)
MIC Staphylococcus aureus (GC 4544) (Staphylococcus sp.; Staphylococcus aureus (GC 4544)): 2 µg/mL (≈ 1.37 µM)
MIC Staphylococcus aureus (GC 4545) (Staphylococcus sp.; Staphylococcus aureus (GC 4545)): 2 µg/mL (≈ 1.37 µM)
MIC Staphylococcus aureus-SMITH (GC 4543) (Staphylococcus sp.; Staphylococcus aureus-SMITH (GC 4543)): 1 µg/mL (≈ 0.685 µM)
MIC Staphylococcus haemolyticus (GC 4546) (Staphylococcus sp.; Staphylococcus haemolyticus (GC 4546)): 1 µg/mL (≈ 0.685 µM)
MIC Streptococcus agalactiae (GC 4564) (Streptococcus sp.; Streptococcus agalactiae (GC 4564)): 0.5 µg/mL (≈ 0.343 µM)
MIC Streptococcus pneumoniae (ATCC 6301) (Streptococcus sp.; Streptococcus pneumoniae (ATCC 6301)): 0.25 µg/mL (≈ 0.171 µM)
MIC Streptococcus pneumoniae (GC 1894) (Streptococcus sp.; Streptococcus pneumoniae (GC 1894)): <0.12 µg/mL
MIC Streptococcus pneumoniae (GC 4565) (Streptococcus sp.; Streptococcus pneumoniae (GC 4565)): 0.25 µg/mL (≈ 0.171 µM)
MIC Streptococcus pyogenes (GC 4563) (Streptococcus sp.; Streptococcus pyogenes (GC 4563)): 0.5 µg/mL (≈ 0.343 µM)
MIC Streptococcus agalactiae (GC 4564) (Streptococcus sp.; [1]): 0.5 µg/mL (≈ 0.343 µM)
MIC Streptococcus pneumoniae (ATCC 6301) (Streptococcus sp.; [1]): 0.25 µg/mL (≈ 0.171 µM)
MIC Streptococcus pneumoniae (GC 1894) (Streptococcus sp.; [1]): <0.12 µg/mL
MIC Streptococcus pneumoniae (GC 4565) (Streptococcus sp.; [1]): 0.25 µg/mL (≈ 0.171 µM)
MIC Streptococcus pyogenes (GC 4563) (Streptococcus sp.; [1]): 0.5 µg/mL (≈ 0.343 µM)
